This passage reports inhibition results from US8809233B2, “Ternary herbicidal compositions comprising aminopyralid and imazamox” (BASF SE, priority 2008, dated 2014).

The structures appear in SMILES notation. Read-outs that look alike come from different tables or passages of the source.

Format in all cases: in vivo
The subject of experiment [1] is Capsella bursa-pasturis (CAPBP). The experiment is described as follows: greenhouse post-emergence herbicidal activity on CAPBP. The protocol:
(§1) The test plants have been seeded, separately for each species, in plastic containers in sandy loamy soil containing 5% of organic matter.
(§2) For the post emergence treatment, the plants were first grown to the 2 leaf station (GS 12). Here, the herbicidal compositions were suspended or emulsified in water as distribution medium and sprayed using finely distributing nozzels.
(§3) The plants have been cultivated due to there individual requirements at 10-25° C. and 20-35° C. The plants were irrigated due to there necessity.
(§4) The respective herbicides A and/or safener were formulated as 10% by weight strength suspension concentrate and introduced to the spray liquor with the amount of solvent system used for applying the active compound. Herbicide B and/or safener were used as commercially available formulations and introduced to the spray liquor with the amount of solvent system used for applying the active compound. In the examples, the solvent used was water.
(§5) In the following experiments, the herbicidal activity for the individual herbicide compounds (solo and mixture applications), the herbicidal succession was assessed 14 days after treatment (DAT).
(§6) The evaluation for the damage on undesired weeds caused by the chemical compositions was carried out using a scale from 0 to 100%, compared to the untreated control plants. Here, 0 means no damage and 100 means complete destruction of the plants.
(§7) The value E, which is to be expected if the activity of the individual compounds is just additive, was calculated using the method of S. R. Colby (1967) “Calculating synergistic and antagonistic responses of herbicide combinations”, weeds 15, p. 22ff.
(§8) [formula] where: X=effect in percent using herbicide A at an application rate a; Y=effect in percent using herbicide B at an application rate b; Z=effect in percent using herbicide C at an application rate c; E=expected effect (in %) of A+B+C at application rates a+b+c
(§9) Tables 1 to 2 relate to the herbicidal activity, in greenhouse trials, of the individual actives and the combination in post-emergence application 14 DAT.

Experiment [2] relates to Viola arvensis (VIOAR). The experiment is described as follows: greenhouse post-emergence herbicidal activity on VIOAR. The protocol: as §1, §2, §3, §4, §5, §6, §7, §8, §9
Experiment [3] has as its system Thlaspi arvense (THLAR). The experiment is described as follows: greenhouse post-emergence herbicidal activity on THLAR. The procedure: as §1, §2, §3, §4, §5, §6, §7, §8, §9
Experiment [4] deals with Matricaria inodora (MATIN). As to the kind of experiment: greenhouse post-emergence herbicidal activity on MATIN. Particulars: Tripleurospermum inodorum. The procedure:
as §1, §2, §3, §4, §5, §6, §7, §8, §9

Experiment [5] has as its system Papaver rhoeas (PAPRH). As to the kind of experiment: greenhouse post-emergence herbicidal activity on PAPRH. The protocol:
as §1, §2, §3, §4, §5, §6, §7, §8, §9

For experiment [6], the system named is Mercurialis annua (MERAN). As to the kind of experiment: greenhouse post-emergence herbicidal activity on MERAN. The protocol:
as §1, §2, §3, §4, §5, §6, §7, §8, §9

Experiment [7] has as its system Matricaria chamomilla (MATCH). As to the kind of experiment: greenhouse post-emergence herbicidal activity on MATCH. The conditions noted are these: 672 h, read-out: % activity 28 DAT. The protocol:
as §1, §2, §3
The respective herbicides A and/or safener were formulated as 10% by weight strength suspension concentrate and introduced to the spray liquor with the amount of solvent system used for applying the active compound. Herbicide B and/or safener were used as commercially available formulations and introduced to the spray liquor with the amount of solvent system used for applying the active compound. In the examples, the solvent used was water. […]
The evaluation for the damage on undesired weeds caused by the chemical compositions was carried out using a scale from 0 to 100%, compared to the untreated control plants. […]
The value E, which is to be expected if the activity of the individual compounds is just additive, was calculated using the method of S. R. Colby (1967) “Calculating synergistic and antagonistic responses of herbicide combinations”, weeds 15, p. […]

In the case of `O=C(O)c1nc(Cl)ccc1Cl` [clopyralid], the inhibition at 30 g/ha in experiment [1] (Table 2, CAPBP, solo application, use rate 30 g ai/ha) was 0%. Further, the inhibition at 120 g/ha in experiment [1] (Table 2, CAPBP, solo application, use rate 120 g ai/ha) came to 10%.

For `Cc1cccc(C)c1N(Cn1cccn1)C(=O)CCl` [metazachlor], the inhibition at 187 g/ha in experiment [2] (VIOAR, solo application, use rate 187 g ai/ha) was 15%; in experiment [3] (THLAR, solo application, use rate 187 g ai/ha), 0%; in experiment [1] (CAPBP, solo application, use rate 187 g ai/ha), 0%; in experiment [4] (MATIN, solo application, use rate 187 g ai/ha), 60%; in experiment [5] (PAPRH, solo application, use rate 187 g ai/ha), 30%; in experiment [6] (MERAN, solo application, use rate 187 g ai/ha), 15%.

`COCc1cnc(C2=NC(C)(C(C)C)C(=O)N2)c(C(=O)O)c1` (racemic) [imazamox, 2-[(RS)-4-isopropyl-4-methyl-5-oxo-2-imidazolin-2-yl]-5-methoxymethylnicotinic acid]: the inhibition at 20 g/ha came out at 0% in experiment [2] (VIOAR, solo application, use rate 20 g ai/ha); 90% in experiment [3] (THLAR, solo application, use rate 20 g ai/ha); 90% in experiment [1] (CAPBP, solo application, use rate 20 g ai/ha); 65% in experiment [4] (MATIN, solo application, use rate 20 g ai/ha); 35% in experiment [5] (PAPRH, solo application, use rate 20 g ai/ha); 90% in experiment [6] (MERAN, solo application, use rate 20 g ai/ha). In addition, in experiment [1] (Table 2, CAPBP, solo application, use rate 10 g ai/ha (imazamox), read-out: % activity), the inhibition at 10 g/ha is 80%.

As for `Nc1cc(Cl)nc(C(=O)O)c1Cl` [aminopyralid, 4-amino-3,6-dichloropyridine-2-carboxylic acid], the inhibition at 2.5 g/ha came out at 40% in experiment [7]; 10% in experiment [2] (read-out: % activity); 30% in experiment [3] (read-out: % activity); 0% in experiment [1] (read-out: % activity); 35% in experiment [4] (read-out: % activity); 0% in experiment [5] (read-out: % activity). In addition, the inhibition at 2.5 g/ha in experiment [6] (read-out: % activity) was 70%. Besides, the inhibition at 5 g/ha in experiment [7] turned out to be 75%; in experiment [2] (read-out: % activity) it was 10%; in experiment [1] (read-out: % activity), 10%; in experiment [4] (read-out: % activity) it was 60%; in experiment [5] (read-out: % activity) it was 15%. In experiment [1] (read-out: % activity), the inhibition at 10 g/ha was 25%.
